The experiment relates to Visna-Virus. Kind of experiment: Visna virus test: inhibition of the virus-induced cytopathic effect in infected sheep fibroblast cultures. The format is cell-based. Particulars: Visna-maedi virus, Fibroblastenzellen vom Schaf, MOI ca. 0,05, 7 Tage bei 37°C 5% CO₂, concentration at which the cytopathic effect is inhibited by 50%, read microscopically. The text has this: In Zellkulturen, die mit Visna-Virus infiziert sind, treten 5 bis 10 Tage nach der Infektion ausgeprägte virusinduzierte, zytopathische Effekte auf. Durch Behandlung der infizierten Zellkulturen mit den erfindungsgemäßen Verbindungen konnte das Auftreten dieser zytopathischen Effekte verhindert werden.
Der Visna-Virus-Test wurde nach der Methode von O. Narayan et al., Journal of Infectious Diseases 135, 5, 1977, 800 - 806 durchgeführt. Dazu wurden die erfindungsgemäßen Verbindungen im Kulturmedium in nicht zytotoxischen Konzentrationen in 96er Microtiterplatten verdünnt. Anschließend wurden Fibroblastenzellen vom Schaf (5 x 10⁴ Zellen pro Napf) in Produktionsmedium zu jedem Näpfchen zugeführt. Jedes Näpfchen erhielt dann 50 µl einer Visna-Viruslösung mit einer Titer von ca. […] TCID₅₀ (TCID = tissue culture infectious dosis). Diese Virusdosis entspricht einer MOI (Multiplizität der Infektion) von ca. 0,05.
Unter diesen Infektionsbedingungen resultierte zwischen Tag 5 und Tag 10 in einer Infektionskontrolle ohne Substanz ein virusinduzierter, zytopathischer Effekt. Die infizierten und behandelten Zellen und die Kontrollzellen wurden 7 Tage bei 37°C 5% CO₂ inkubiert.
Bei Auftreten des virusinduzierten zytopathogenen Effektes in der unbehandelten Viruskontrolle wurden die Kulturen mit Formalin fixiert und anschließend mit einer Giemsa-Lösung gefärbt. Die inhibitorische Konzentration (IC₅₀) wurde mikroskopisch als die Konzentration ermittelt, bei der der zytopathische Effekt um 50% gehemmt wurde: im Vergleich zur unbehandelten Viruskontrolle, die 100% Zellzerstörung aufwies.

This is an account of results in patent EP0449026A2, “Desoxynojirimycin derivatives, process for their preparation and their use in drugs” (BAYER AG, priority 1990, dated 1991).

SMILES strings stand for the structures. In brackets after ≈: the same amount, converted by molar mass.

Consider `CC=CCN1CC(OC(=O)CC(C)C)C(OC(=O)CC(C)C)C(O)C1CO` (stereo not drawn) [Beispiel 10], for which the IC50 (as a rule, the concentration that inhibits the measured activity by half) amounted to 20 mg/L (≈ 51.9 µM). In the case of `CC=CCN1CC(OC(C)=O)C(OC(C)=O)C(O)C1CO` (stereo not drawn) [Beispiel 6] it was 12.5 mg/L (≈ 41.5 µM); in that of `CC=CCN1CC(OC(=O)c2ccccc2)C(OC(=O)c2ccccc2)C(O)C1CO` (stereo not drawn) [Beispiel 3, N-Butenyl-2,3-dibenzoyl-desoxynojirimycin], 50 mg/L (≈ 118 µM).
